Data reported in patent US8530648B2, “Diaza-spiro[5.5]undecanes” (Novartis AG, priority 2009, dated 2013).

Key:
hOx1R [1] = target: T1, hOx1R (Homo sapiens (Human), UniProt O43613); test: Radioligand binding assay, [125I]orexin A, hOx1R; conditions: radioligand [125I]orexin A, competition
Method: (§1) For crude cell membrane preparations, cells (CHO, Chinese hamster ovary or HEK, human embryonic kidney) expressing human orexin 1 or human orexin 2 receptors, were washed with HEPES (10 mM, pH 7.5), scraped off the culture plates with the same buffer, and centrifuged at 4° C. for 5 min at 2500×g. The cell pellet was either stored at −80° C. or used directly. Before the experiments, cell membranes were re-suspended in binding assay buffer (10 mM HEPES, 0.5% (w/v) bovine serum albumin, pH 7.5) by homogenisation with a Polytron homogeniser at 50 Hz for 20 s. Cell membranes were also used as made available by commercial providers.
(§2) In initial saturation experiments (to calculate Bmax), cell homogenates (150 μl) were incubated with 25-300 pM of the radioligand ([^125I]orexin A, 50 μl), 8 concentrations in triplicates in the presence or absence Orexin A (1 μM, 50 μl) to define non specific binding. Bound radioactivity was measured, and data were analysed with the program XLFIT or Graphpad Prism. Protein concentration was determined according to the Bradford/BioRad Protein Assay Kit.
(§3) In competition experiments, cell homogenates (150 μl) were incubated in assay buffer (10 mM HEPES, pH 7.5, 0.5% (w/v) bovine serum albumin, 5 mM MgCl2, 1 mM CaCl2, and tween 0.05%) for 1 h at room temperature with about 100 pM of the radioligand ([^125I]orexin A, 2100 Ci/mmole, 50 μl), and with various concentrations of compounds of the invention (50 μl) in triplicates; non-specific binding was determined in the presence of Orexin A (1 μM). Reactions were terminated by vacuum filtration, 3 washes of ice cold wash buffer (Tris-HCl pH 7.4/10 mM, with NaCl 154 mM).

hOx2R [2] = target: T2, hOx2R (Homo sapiens (Human), UniProt O43614); test: Radioligand binding assay, [125I]orexin A, hOx2R; conditions: radioligand [125I]orexin A, competition
T2 sequence (O43614 whole entry): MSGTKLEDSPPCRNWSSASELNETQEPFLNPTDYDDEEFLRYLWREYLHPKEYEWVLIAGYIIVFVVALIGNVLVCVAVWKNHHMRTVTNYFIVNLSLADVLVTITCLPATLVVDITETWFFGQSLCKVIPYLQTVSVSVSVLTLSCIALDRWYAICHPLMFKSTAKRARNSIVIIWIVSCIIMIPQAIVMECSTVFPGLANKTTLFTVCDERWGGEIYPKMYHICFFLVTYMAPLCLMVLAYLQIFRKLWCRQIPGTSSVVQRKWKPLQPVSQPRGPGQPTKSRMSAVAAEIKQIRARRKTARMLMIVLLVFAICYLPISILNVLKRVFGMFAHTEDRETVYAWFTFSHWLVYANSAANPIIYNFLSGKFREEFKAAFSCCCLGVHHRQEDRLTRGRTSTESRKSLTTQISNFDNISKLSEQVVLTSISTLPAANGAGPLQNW
Method: as §1, §2, §3

hOx2R [3] = target: T2, hOx2R; test: Calcium accumulation in cells (FLIPR), hOx2R; assay type: cell-based; conditions: inhibition of orexin A induced calcium accumulation, Cheng and Prusoff correction
Summary of the method: (§4)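 Cells expressing human orexin 1 or 2 receptor, serum-deprived overnight, loaded with Fluo-4-AM (2 μM) plus 0.1 mM probenecid, pH 7.4 HEPES buffer with 1% BSA.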

hOx1R [4] = target: T1, hOx1R; test: Calcium accumulation in cells (FLIPR), hOx1R; assay type: cell-based; conditions: for Ki: inhibition of orexin A induced calcium accumulation, Cheng and Prusoff correction
Summary of the method: as §4

hOx1R [5] = target: T1, hOx1R; test: Radioligand binding assay, [3H]-SB649868, hOx1R; conditions: radioligand [3H]-SB649868, competition
Method: as §1
(§5) Bound radioactivity was measured, and data were analysed with the program XLFIT or Graphpad Prism. Protein concentration was determined according to the Bradford/BioRad Protein Assay Kit.
(§6) In competition experiments, cell homogenates (150 μl) were incubated in assay buffer (10 mM HEPES, pH 7.5, 0.5% (w/v) bovine serum albumin, 5 mM MgCl2, 1 mM CaCl2, and tween 0.05%) for 1 h at room temperature with about 1 nM of the radioligand [^3H]-SB649868, 66 Ci/mmole, 50 μl), and with various concentrations of compounds of the invention (50 μl) in triplicates; non-specific binding was determined in the presence of almorexant (10 μM).

hOx2R [6] = target: T2, hOx2R; test: Radioligand binding assay, [3H]-SB649868, hOx2R; conditions: radioligand [3H]-SB649868, competition
Method: as §1, §5, §6

T1 sequence (O43613 whole entry): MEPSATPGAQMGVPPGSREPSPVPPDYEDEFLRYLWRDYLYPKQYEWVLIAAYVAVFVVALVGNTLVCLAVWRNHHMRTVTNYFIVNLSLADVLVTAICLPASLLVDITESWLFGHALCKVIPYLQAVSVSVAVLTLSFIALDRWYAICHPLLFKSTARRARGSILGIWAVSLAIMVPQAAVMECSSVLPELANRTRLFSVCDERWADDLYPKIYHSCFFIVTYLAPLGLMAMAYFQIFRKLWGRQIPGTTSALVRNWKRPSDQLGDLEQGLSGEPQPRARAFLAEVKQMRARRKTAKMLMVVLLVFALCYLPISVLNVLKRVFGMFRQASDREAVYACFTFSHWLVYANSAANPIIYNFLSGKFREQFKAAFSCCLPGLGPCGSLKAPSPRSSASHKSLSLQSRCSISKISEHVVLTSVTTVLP

Kd (hOx1R [1]) [nM]	Kd (hOx2R [2]) [nM]	Ki (hOx2R [3]) [nM]	Ki (hOx1R [4]) [nM]	Kd (hOx1R [5]) [nM]	Kd (hOx2R [6]) [nM]	inhibition at 10 µM (hOx1R [4]; measured at a concentration of 10 μM of compound) [%]	Structure (SMILES)
–	–	32	1040	1840	147	–	O=C1N(Cc2c[nH]c3ccccc23)CCCC12CCN(c1cnc3ccccc3c1)CC2 [Example 48, 2-((1H-indol-3-yl)methyl)-9-(quinolin-3-yl)-2,9-diazaspiro[5.5]undecan-1-one]
–	–	23	623	1020	139	–	O=C1N(Cc2c[nH]c3ccccc23)CCCC12CCN(c1nccc3occc13)CC2 [Example 156, 2-((1H-indol-3-yl)methyl)-9-(furo[3,2-c]pyridin-4-yl)-2,9-diazaspiro[5.5]undecan-1-one]
–	–	29	422	1280	134	–	Cn1cc(CN2CCCC3(CCN(c4cnc5ccccc5n4)CC3)C2=O)c2ccccc21 [Example 130, 2-((1-methyl-1H-indol-3-yl)methyl)-9-(quinoxalin-2-yl)-2,9-diazaspiro[5.5]undecan-1-one]
–	–	14	115	90	12	–	Cc1cc(N2CCC3(CCCN(Cc4c[nH]c5ccccc45)C3=O)CC2)nc2ccccc12 [Example 164, 2-((1H-indol-3-yl)methyl)-9-(4-methylquinolin-2-yl)-2,9-diazaspiro[5.5]undecan-1-one]
–	–	81	665	1670	152	–	O=C1N(Cc2c[nH]c3ccccc23)CCCC12CCN(c1cc3nccnc3cn1)CC2 [Example 167, 2-((1H-indol-3-yl)methyl)-9-(pyrido[4,3-b]pyrazin-7-yl)-2,9-diazaspiro[5.5]undecan-1-one]
–	–	137	2290	4990	324	–	Cc1ccc(-n2nccn2)c(CN2CCCC3(CCN(c4cnc5ccccc5n4)CC3)C2=O)c1 [Example 125, 2-(5-methyl-2-(2H-1,2,3-triazol-2-yl)benzyl)-9-(quinoxalin-2-yl)-2,9-diazaspiro[5.5]undecan-1-one]
–	–	70	966	926	123	–	O=C1N(Cc2c[nH]c3ccccc23)CCCC12CCN(c1ncc3ccccc3n1)CC2 [Example 169, 2-((1H-indol-3-yl)methyl)-9-(quinazolin-2-yl)-2,9-diazaspiro[5.5]undecan-1-one]
–	–	9	126	105	25	–	O=C1N(Cc2n[nH]c3ccccc23)CCCC12CCN(c1cnc3ccccc3n1)CC2 [Example 129, 2-((1H-indazol-3-yl)methyl)-9-(quinoxalin-2-yl)-2,9-diazaspiro[5.5]undecan-1-one]
–	–	69	1560	939	84	–	O=C1N(Cc2c[nH]c3ccccc23)CCCC12CCN(c1nc3ccccc3[nH]1)CC2 [Example 152, 2-((1H-indol-3-yl)methyl)-9-(1H-benzo[d]imidazol-2-yl)-2,9-diazaspiro[5.5]undecan-1-one]
–	–	62	373	2050	395	–	O=C1N(Cc2cccc(-c3ncccn3)c2)CCCC12CCN(c1cnc3ccccc3n1)CC2 [Example 61, 2-(3-(pyrimidin-2-yl)benzyl)-9-(quinoxalin-2-yl)-2,9-diazaspiro[5.5]undecan-1-one]
–	–	23	357	1860	623	–	O=C1N(Cc2cccc(-c3cnccn3)c2)CCCC12CCN(c1cnc3ccccc3n1)CC2 [Example 65, 2-(3-(pyrazin-2-yl)benzyl)-9-(quinoxalin-2-yl)-2,9-diazaspiro[5.5]undecan-1-one]

More lines, now with the values behind:

Structure (SMILES)	Kd (hOx1R [1]) [nM]	Kd (hOx2R [2]) [nM]	Ki (hOx2R [3]) [nM]	Ki (hOx1R [4]) [nM]	Kd (hOx1R [5]) [nM]	Kd (hOx2R [6]) [nM]	inhibition at 10 µM (hOx1R [4]; measured at a concentration of 10 μM of compound) [%]
O=C1N(Cc2ccc3c(c2)OCCO3)CCCC12CCN(c1cnc3ccccc3n1)CC2 [Example 25, 2-((2,3-dihydrobenzo[b][1,4]dioxin-6-yl)methyl)-9-(quinoxalin-2-yl)-2,9-diazaspiro[5.5]undecan-1-one]	5250	3210	–	–	–	–	–
Cn1ccc2c(CN3C(=O)CCCC34CCN(c3cnc5ccccc5n3)CC4)cccc21 [Example 44, 1-((1-methyl-1H-indol-4-yl)methyl)-9-(quinoxalin-2-yl)-1,9-diazaspiro[5.5]undecan-2-one]	–	–	48	64	56	125	–
O=C1N(Cc2cccc(-n3cccn3)c2)CCCC12CCN(c1cnc3ccccc3n1)CC2 [Example 60, 2-(3-(1H-pyrazol-1-yl)benzyl)-9-(quinoxalin-2-yl)-2,9-diazaspiro[5.5]undecan-1-one]	–	–	49	391	728	191	–
O=C1N(Cc2cccc(-n3nccn3)c2)CCCC12CCN(c1cnc3ccccc3n1)CC2 [Example 47, 2-(3-(2H-1,2,3-triazol-2-yl)benzyl)-9-(quinoxalin-2-yl)-2,9-diazaspiro[5.5]undecan-1-one]	–	–	13	159	318	34	–
O=C1N(Cc2cccc(-n3cccn3)n2)CCCC12CCN(c1cnc3ccccc3n1)CC2 [Example 83, 2-((6-(1H-pyrazol-1-yl)pyridin-2-yl)methyl)-9-(quinoxalin-2-yl)-2,9-diazaspiro[5.5]undecan-1-one]	–	–	80	1730	2760	364	–
O=C1N(Cc2ncoc2-c2ccccc2)CCCC12CCN(c1cnc3ccccc3n1)CC2 [Example 95, 2-((5-phenyloxazol-4-yl)methyl)-9-(quinoxalin-2-yl)-2,9-diazaspiro[5.5]undecan-1-one]	–	–	8	223	429	36	–
Cc1ccc2oc(N3CCC4(CCCC(=O)N4Cc4cccc5[nH]ccc45)CC3)nc2c1 [Example 140, 1-((1H-indol-4-yl)methyl)-9-(5-methylbenzo[d]oxazol-2-yl)-1,9-diazaspiro[5.5]undecan-2-one]	–	–	81	662	1580	379	–
Cc1noc(-c2ccccc2CN2CCCC3(CCN(c4cnc5ccccc5n4)CC3)C2=O)n1 [Example 39, 2-(2-(3-methyl-1,2,4-oxadiazol-5-yl)benzyl)-9-(quinoxalin-2-yl)-2,9-diazaspiro[5.5]undecan-1-one]	–	–	25	1420	2770	243	–
O=C1N(Cc2ccnc(-n3cccn3)c2)CCCC12CCN(c1cnc3ccccc3n1)CC2 [Example 63, 2-((2-(1H-pyrazol-1-yl)pyridin-4-yl)methyl)-9-(quinoxalin-2-yl)-2,9-diazaspiro[5.5]undecan-1-one]	–	–	83	900	3820	903	–
Cc1nc(-c2cccc(CN3CCCC4(CCN(c5cnc6ccccc6n5)CC4)C3=O)c2)no1 [Example 98, 2-(3-(5-methyl-1,2,4-oxadiazol-3-yl)benzyl)-9-(quinoxalin-2-yl)-2,9-diazaspiro[5.5]undecan-1-one]	–	–	50	425	980	223	–
O=C1N(Cc2ccccc2-n2nccn2)CCCC12CCN(c1cnc3ccccc3n1)CC2 [Example 49, 2-(2-(2H-1,2,3-triazol-2-yl)benzyl)-9-(quinoxalin-2-yl)-2,9-diazaspiro[5.5]undecan-1-one]	–	–	39	2110	3260	115	–
O=C1N(Cc2ccccc2-c2ncco2)CCCC12CCN(c1cnc3ccccc3n1)CC2 [Example 149, 2-(2-(oxazol-2-yl)benzyl)-9-(quinoxalin-2-yl)-2,9-diazaspiro[5.5]undecan-1-one]	–	–	19	981	3450	268	–
O=C1N(Cc2cccc3c2OCCO3)CCCC12CCN(c1nccc3occc13)CC2 [Example 82, 2-((2,3-dihydrobenzo[b][1,4]dioxin-5-yl)methyl)-9-(furo[3,2-c]pyridin-4-yl)-2,9-diazaspiro[5.5]undecan-1-one]	–	–	81	–	5090	624	33
